“And” between values parts separate entries of the source, which are not always exact repeats. Equal entries are not always repeated. Numbers after ± are expanded uncertainties.
Conditions: Liquid, Closed cell (Static) method

Compound | vapor or sublimation pressure (348.15 K) | vapor or sublimation pressure (373.15 K)
CCO [ethanol] | 88.59 ± 0.36 kPa and 88.58 ± 0.36 kPa | 224.37 ± 0.48 kPa and 224.31 ± 0.48 kPa
CCCCCC [hexane] | 123.12 ± 0.38 kPa and 123.03 ± 0.38 kPa and 122.84 ± 0.38 kPa | 247.22 ± 0.55 kPa and 245.99 ± 0.55 kPa and 245.79 ± 0.55 kPa
CO [methanol] | 150.71 ± 0.54 kPa and 150.69 ± 0.54 kPa and 150.67 ± 0.54 kPa | 352.64 ± 0.74 kPa and 352.62 ± 0.74 kPa and 352.7 ± 0.74 kPa

— the NIST ThermoML archive (doi:10.1016/j.fluid.2015.03.009)
